Reference: patent US20220009920A1 (GB005, Inc., priority 2020, published 2022)

How the values were obtained:
Assay in all cases: Large panel kinase profiling
Type in all cases: biochemical
Settings in all cases: 1 μM test article, 1 mM ATP
DAPK1 = biological target: T1, DAPK1 (Homo sapiens, UniProt P53355)
T1 construct: AssayQuant Technologies, Inc. (service laboratory)
How it was run: (§1)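 Activity is measured in real time from the CSox sensor's fluorescence at 485 nm after 360 nm excitation, sampled every minute. Assays run at 30° C. with 1 mM ATP and a single 1 μM compound dose.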

DDR1 = biological target: T2, DDR1 (Homo sapiens, UniProt Q08345)
T2 construct: AssayQuant Technologies, Inc. (service laboratory)
How it was run: as §1

EIF2AK1/HRI = biological target: T3, EIF2AK1/HRI (Homo sapiens, UniProt Q9BQI3)
T3 construct: AssayQuant Technologies, Inc. (service laboratory)
How it was run: as §1

EPHA5 = EPHA5 (Homo sapiens, UniProt P54756)
How it was run: as §1

JAK1(JH1JH2) = biological target: T4, JAK1(JH1JH2) (Homo sapiens, UniProt P23458)
T4 construct: JAK1(JH1JH2)
How it was run: as §1

KIT = KIT (Homo sapiens, UniProt P10721)
How it was run: as §1

MAPK13/P38D = biological target: T5, MAPK13/P38D (Homo sapiens, UniProt O15264)
T5 construct: AssayQuant Technologies, Inc. (service provider)
T5 sequence (O15264 1-365): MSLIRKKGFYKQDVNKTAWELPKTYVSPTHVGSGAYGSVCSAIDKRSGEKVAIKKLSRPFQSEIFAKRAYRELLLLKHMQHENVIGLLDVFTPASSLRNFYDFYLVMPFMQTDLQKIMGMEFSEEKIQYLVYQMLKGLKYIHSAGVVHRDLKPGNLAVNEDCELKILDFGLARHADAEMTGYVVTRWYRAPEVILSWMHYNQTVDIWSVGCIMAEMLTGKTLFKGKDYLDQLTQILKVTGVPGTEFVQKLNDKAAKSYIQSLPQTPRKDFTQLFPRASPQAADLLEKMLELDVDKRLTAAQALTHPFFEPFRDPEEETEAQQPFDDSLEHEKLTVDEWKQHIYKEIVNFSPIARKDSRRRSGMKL
How it was run: as §1

NEK7 = biological target: T6, NEK7 (Homo sapiens, UniProt Q8TDX7)
T6 construct: AssayQuant Technologies, Inc. (assay service)
How it was run: as §1

NTRK2/TRKB = biological target: T7, NTRK2/TRKB (Homo sapiens, UniProt Q16620)
T7 construct: AssayQuant Technologies, Inc. (assay service)
How it was run: as §1

PAK1 = PAK1 (Homo sapiens, UniProt Q13153)
How it was run: as §1

PIM3 = PIM3 (Homo sapiens, UniProt Q86V86)
How it was run: as §1

PRKAA1/AMPK121 = PRKAA1/AMPK121 (Homo sapiens, UniProt Q13131)
How it was run: as §1

PRKCI/PKCI = biological target: T8, PRKCI/PKCI (Homo sapiens, UniProt P41743)
T8 sequence (P41743 1-596): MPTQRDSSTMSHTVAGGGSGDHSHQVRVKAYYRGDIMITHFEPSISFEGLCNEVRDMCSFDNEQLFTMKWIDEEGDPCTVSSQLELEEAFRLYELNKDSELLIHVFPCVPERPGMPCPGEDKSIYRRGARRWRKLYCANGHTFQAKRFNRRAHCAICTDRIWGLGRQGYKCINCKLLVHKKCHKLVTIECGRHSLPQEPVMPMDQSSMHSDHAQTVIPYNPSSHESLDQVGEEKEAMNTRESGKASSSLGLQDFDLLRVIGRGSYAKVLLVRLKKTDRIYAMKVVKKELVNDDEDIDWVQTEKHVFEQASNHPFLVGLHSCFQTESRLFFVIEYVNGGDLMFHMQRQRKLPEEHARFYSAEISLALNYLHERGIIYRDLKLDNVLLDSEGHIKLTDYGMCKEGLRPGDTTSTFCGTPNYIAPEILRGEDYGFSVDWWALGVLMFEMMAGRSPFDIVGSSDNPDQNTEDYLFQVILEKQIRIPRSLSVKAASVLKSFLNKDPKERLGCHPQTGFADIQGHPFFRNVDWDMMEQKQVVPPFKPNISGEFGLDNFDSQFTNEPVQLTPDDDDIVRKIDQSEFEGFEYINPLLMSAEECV
How it was run: as §1

RET = RET (Homo sapiens, UniProt P07949)
How it was run: as §1

SYK = biological target: T9, SYK (Homo sapiens, UniProt P43405)
T9 construct: AssayQuant Technologies, Inc. (contract assay)
How it was run: as §1

Chain of PRKAA1/AMPK121 (Q13131 whole entry, species assumed): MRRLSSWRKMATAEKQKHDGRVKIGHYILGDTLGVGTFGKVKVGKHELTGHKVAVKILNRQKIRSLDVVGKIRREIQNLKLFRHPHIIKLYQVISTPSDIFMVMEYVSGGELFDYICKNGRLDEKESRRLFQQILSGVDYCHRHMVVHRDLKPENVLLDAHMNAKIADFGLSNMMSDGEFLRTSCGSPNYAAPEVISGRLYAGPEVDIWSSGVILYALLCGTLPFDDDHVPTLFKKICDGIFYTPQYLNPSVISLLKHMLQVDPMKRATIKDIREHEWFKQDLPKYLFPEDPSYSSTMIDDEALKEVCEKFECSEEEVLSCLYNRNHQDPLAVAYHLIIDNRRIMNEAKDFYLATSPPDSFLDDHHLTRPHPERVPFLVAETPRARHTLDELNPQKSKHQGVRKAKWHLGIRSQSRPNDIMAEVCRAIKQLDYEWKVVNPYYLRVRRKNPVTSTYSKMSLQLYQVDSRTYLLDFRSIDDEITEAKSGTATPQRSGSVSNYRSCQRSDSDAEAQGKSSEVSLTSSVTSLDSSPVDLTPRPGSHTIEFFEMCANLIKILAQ
Chain of PRKAA1/AMPK121 (O43741 whole entry partner, species assumed): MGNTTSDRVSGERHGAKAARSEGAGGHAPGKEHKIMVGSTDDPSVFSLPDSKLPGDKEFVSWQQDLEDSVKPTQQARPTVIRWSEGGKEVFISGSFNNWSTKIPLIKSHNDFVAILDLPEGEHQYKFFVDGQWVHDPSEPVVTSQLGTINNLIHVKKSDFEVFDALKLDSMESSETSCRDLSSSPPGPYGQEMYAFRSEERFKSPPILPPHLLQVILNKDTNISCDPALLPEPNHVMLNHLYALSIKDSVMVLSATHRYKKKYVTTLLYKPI
Chain of PRKAA1/AMPK121 (P54619 whole entry partner, species assumed): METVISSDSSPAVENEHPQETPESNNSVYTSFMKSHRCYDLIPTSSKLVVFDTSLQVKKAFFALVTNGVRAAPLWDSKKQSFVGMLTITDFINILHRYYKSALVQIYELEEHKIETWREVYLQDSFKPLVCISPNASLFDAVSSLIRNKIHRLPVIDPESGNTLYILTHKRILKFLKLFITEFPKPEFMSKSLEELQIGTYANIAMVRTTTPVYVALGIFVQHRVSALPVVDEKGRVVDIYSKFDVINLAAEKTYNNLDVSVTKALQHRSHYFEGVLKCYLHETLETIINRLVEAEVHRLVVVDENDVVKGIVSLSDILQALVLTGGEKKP
T6 sequence (Q8TDX7 whole entry, species assumed): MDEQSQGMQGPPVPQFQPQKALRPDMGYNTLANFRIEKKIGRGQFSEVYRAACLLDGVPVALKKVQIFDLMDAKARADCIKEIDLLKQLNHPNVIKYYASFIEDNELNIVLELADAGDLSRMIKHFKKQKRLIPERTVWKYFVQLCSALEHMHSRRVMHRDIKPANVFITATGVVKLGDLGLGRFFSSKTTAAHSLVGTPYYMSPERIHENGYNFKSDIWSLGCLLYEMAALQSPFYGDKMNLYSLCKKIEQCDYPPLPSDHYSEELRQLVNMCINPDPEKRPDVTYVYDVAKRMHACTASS
T3 sequence (Q9BQI3 whole entry): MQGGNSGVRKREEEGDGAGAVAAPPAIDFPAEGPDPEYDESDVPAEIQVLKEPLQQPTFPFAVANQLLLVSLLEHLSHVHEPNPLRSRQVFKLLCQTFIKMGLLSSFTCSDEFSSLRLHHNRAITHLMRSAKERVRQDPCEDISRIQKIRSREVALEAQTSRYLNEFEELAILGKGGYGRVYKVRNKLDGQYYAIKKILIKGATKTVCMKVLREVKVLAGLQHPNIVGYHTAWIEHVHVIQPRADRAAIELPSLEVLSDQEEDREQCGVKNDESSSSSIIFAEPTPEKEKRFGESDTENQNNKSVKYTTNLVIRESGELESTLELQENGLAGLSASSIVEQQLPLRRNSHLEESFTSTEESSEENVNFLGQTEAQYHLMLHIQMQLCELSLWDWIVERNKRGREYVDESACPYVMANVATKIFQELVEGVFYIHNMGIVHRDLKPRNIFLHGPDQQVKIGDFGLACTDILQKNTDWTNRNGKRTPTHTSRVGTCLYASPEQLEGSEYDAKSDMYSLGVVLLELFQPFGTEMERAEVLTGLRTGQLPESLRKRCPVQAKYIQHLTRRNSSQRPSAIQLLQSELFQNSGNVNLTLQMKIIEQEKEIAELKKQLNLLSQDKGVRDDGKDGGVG
Chain of RET (P07949 29-1114, species assumed): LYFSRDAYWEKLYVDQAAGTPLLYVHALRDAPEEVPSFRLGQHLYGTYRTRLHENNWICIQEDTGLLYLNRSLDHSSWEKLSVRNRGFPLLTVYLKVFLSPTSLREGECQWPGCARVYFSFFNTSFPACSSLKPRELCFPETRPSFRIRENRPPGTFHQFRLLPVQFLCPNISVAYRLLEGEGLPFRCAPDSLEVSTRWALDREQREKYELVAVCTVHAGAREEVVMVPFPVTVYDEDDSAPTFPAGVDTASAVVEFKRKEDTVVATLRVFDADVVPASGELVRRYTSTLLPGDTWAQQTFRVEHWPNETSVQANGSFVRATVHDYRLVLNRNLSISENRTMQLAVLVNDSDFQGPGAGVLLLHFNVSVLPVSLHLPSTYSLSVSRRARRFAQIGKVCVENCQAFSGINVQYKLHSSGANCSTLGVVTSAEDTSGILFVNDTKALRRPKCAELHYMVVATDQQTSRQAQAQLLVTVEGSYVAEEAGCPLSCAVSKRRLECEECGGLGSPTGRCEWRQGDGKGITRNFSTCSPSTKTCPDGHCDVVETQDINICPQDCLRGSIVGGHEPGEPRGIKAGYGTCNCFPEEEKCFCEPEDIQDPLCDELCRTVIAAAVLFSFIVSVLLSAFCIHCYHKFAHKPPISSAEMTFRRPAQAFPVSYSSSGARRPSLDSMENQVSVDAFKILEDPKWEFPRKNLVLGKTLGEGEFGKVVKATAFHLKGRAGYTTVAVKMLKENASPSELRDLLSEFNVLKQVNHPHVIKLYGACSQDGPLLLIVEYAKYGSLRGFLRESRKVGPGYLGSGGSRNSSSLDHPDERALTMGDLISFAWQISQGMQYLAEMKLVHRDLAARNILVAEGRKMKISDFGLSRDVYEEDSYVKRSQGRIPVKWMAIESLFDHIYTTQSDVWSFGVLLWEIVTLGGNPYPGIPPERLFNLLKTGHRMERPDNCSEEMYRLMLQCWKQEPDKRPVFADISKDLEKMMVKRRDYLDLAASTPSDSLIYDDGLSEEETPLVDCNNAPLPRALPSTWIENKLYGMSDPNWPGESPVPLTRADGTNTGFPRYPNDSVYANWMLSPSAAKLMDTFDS
T4 sequence (P23458 561-1154 limits assumed, species assumed): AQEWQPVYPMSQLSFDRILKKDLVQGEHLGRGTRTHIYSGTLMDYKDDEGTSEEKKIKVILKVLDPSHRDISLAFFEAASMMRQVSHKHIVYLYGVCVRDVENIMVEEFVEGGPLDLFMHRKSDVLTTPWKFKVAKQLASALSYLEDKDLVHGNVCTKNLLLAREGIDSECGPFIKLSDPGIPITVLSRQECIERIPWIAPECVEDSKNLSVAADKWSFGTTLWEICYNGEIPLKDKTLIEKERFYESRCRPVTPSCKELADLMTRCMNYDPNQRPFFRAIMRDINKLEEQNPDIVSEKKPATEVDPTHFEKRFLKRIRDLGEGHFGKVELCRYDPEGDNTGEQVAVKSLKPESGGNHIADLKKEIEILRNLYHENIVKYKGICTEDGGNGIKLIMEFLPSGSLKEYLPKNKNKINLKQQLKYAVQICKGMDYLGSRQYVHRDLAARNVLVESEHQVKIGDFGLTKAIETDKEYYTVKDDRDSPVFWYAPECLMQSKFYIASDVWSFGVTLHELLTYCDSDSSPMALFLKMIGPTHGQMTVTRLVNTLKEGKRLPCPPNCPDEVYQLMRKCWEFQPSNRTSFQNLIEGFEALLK
Chain of PAK1 (Q13153 whole entry): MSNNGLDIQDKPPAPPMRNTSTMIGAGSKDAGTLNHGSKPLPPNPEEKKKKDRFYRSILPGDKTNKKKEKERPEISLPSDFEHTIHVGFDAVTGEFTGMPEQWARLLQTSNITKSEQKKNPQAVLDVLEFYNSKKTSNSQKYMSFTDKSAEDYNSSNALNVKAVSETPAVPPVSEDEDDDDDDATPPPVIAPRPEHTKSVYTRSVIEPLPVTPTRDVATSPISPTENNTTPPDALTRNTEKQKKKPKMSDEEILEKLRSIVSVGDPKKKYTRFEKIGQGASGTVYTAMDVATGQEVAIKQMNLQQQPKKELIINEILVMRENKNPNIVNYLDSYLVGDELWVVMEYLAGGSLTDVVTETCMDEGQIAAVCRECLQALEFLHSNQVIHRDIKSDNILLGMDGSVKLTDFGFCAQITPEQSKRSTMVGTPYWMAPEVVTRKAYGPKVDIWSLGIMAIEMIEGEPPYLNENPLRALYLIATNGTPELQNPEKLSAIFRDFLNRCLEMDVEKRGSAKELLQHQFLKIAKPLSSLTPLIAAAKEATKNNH

| SMILES | inhibition at 1 µM (DAPK1) [%] | inhibition at 1 µM (DDR1) [%] | inhibition at 1 µM (EIF2AK1/HRI) [%] | inhibition at 1 µM (EPHA5) [%] | inhibition at 1 µM (JAK1(JH1JH2)) [%] | inhibition at 1 µM (KIT) [%] | inhibition at 1 µM (MAPK13/P38D) [%] | inhibition at 1 µM (NEK7) [%] | inhibition at 1 µM (NTRK2/TRKB) [%] | inhibition at 1 µM (PAK1) [%] | inhibition at 1 µM (PIM3) [%] | inhibition at 1 µM (PRKAA1/AMPK121) [%] | inhibition at 1 µM (PRKCI/PKCI) [%] | inhibition at 1 µM (RET) [%] | inhibition at 1 µM (SYK) [%] |
| --- | --- | --- | --- | --- | --- | --- | --- | --- | --- | --- | --- | --- | --- | --- | --- |
| C=CC(=O)N1CCCC(c2c(F)cc(C(N)=O)c3[nH]c4c(c23)CCCCC4)C1 (single isomer, unassigned) [Compound 5-6] | 8.1 | 1.4 | -6.1 | 8.1 | 8.5 | 5.5 | 6.7 | 14.6 | -20.9 | 9.3 | -14.1 | -7.9 | -0.6 | -24 | 2.8 |
| C=CC(=O)N1CCC[C@@H](c2c(F)cc(C(N)=O)c3[nH]c4c(c23)CCC4)C1 [Compound 10-2, (S)-8-(1-acryloylpiperidin-3-yl)-7-fluoro-1,2,3,4-tetrahydrocyclo-penta[b]indole-5-carboxamide] | -20.3 | -41.1 | -89.5 | -13.5 | 14.8 | 20.8 | 9 | -22.6 | 19.7 | 6.8 | -16.8 | 34.2 | -3.3 | 6 | -14.1 |
| C=CC(=O)N1CCC[C@@H](c2c(F)cc(C(N)=O)c3[nH]c4c(c23)CC2(CC4)CC2)C1 [Compound 6-2, (S)-5-(1-acryloylpiperidin-3-yl)-6-fluoro-1,2,4,9-tetrahydrospiro[carbazole-3,1′-cyclopropane]-8-carboxamide] | 22.1 | 24.5 | -34.9 | 17 | 29.4 | 26.9 | 26 | 13.8 | 13.1 | 11.4 | -56.4 | 31.3 | 9 | 23 | -5.3 |
